# Reference: patent US12678478B2, “Compositions and methods for treating dysregulated wound healing” (The Regents of the University of California, priority 2020, dated 2026)
# How the values were obtained:
# [1] = tested on: Col5a1CKO cardiac fibroblasts; assay: Myofibroblast gene expression (qPCR) in Col5a1CKO cardiac fibroblasts generated ex vivo with or without cilengitide; format: cell-based, mouse; conditions: Cilengitide 1 μM, 7 days, Col5a1 floxed cardiac fibroblasts infected with lentiviral Cre, versus no cilengitide (FIG. 8F)
# Procedure: For qPCR, and RNA-seq, the injured and uninjured regions of the heart were harvested at different time points following injury, RNA extracted using RNeasy Mini kit (Qiagen). cDNAs were generated using iScript cDNA Synthesis Kit (BioRad) and qPCR performed.
# Cardiac fibroblasts were isolated from Col5a1 fl/fl mouse as described above. These cells were infected with Lentivirus-Large T antigen in presence of polybrene (8 μg/ml) for 16 h, treated with puromycin (2 μg/ml) for selection of infected cells. Immortalized cells were cultured with 10% FBS containing high glucose DMEM. Cells so immortalized were then infected with Lentivirus-Cre recombinase or lentivirus-GFP to generate Col5a1 deficient cardiac fibroblast or control cardiac fibroblast, respectively. These cells were cultured for 6-7 days and used for each experiment to determine effects on gene expression. To determine an effect of Cilengitide on these cells, Col5a1fl/fl cardiac fibroblasts were pretreated with Cilengitide (1 μM) in 10% FBS containing high glucose DMEM for 1 h before infection with lentivirus-Cre recombinase or lentivirus-GFP. […]
# Given the upregulation of αvβ3 and αvβ5 integrins in Col5a1CKO cardiac fibroblasts, whether there was a causal relationship between these differentially expressed integrins and myofibroblast differentiation was determined. […]
# [2] = tested on: control (Cre(−)Col5a1fl/fl) littermate animals; assay: Acute ischemic cardiac injury (LAD ligation) in control littermates treated with cilengitide; format: in vivo, mouse
# Procedure: All animal studies were approved by the Animal Research Committee, University of California, Los Angeles, Myocardial infarction was performed by ligating the left anterior descending (LAD) coronary artery following open thoracotomy. Briefly, Mice were anesthetized with ketamine (80 mg/kg)/xylazine (20 mg/kg) by intraperitoneal injection. Respiration was provided by mechanical ventilation with 95% 02 (tidal volume 0.5 ml, 130 breaths/min). The LAD coronary artery was ligated intramurally 2 mm from its origin with a 9-0 proline suture.
# For experiments related to use of cilengitide, 20 mg/kg of Cilengitide diluted in PBS was administered by intraperitoneal injection every day until harvest and PBS was used as vehicle as a control.
# For echocardiography, animals were continuously anesthetized with 1.5% isoflurane and 95% O2, Vevo2100 imaging system and a […] scan head (Toronto, Canada) were used to acquire short/long axis B-mode and M-mode images. Long axis B-mode view was used for analyzing peak longitudinal strain rate. […]
# For Masson Trichrome staining, sections were stained using Masson Trichrome Stain kit (Thermo Scientific, 87019). Images were taken in heart sections from apex, mid-ventricle, and close to suture and fibrotic area analyzed from apex to mid-ventricle. Scar tissue area was calculated as the fraction of left ventricular surface area occupied by the scar tissue. […]
# Col5a1CKO animals = assay: Acute ischemic cardiac injury (LAD ligation) in Col5a1CKO animals treated with cilengitide; format: in vivo, mouse
structure (smiles),measurement,setting,value
"CC(C)[C@H]1C(=O)N[C@@H](CCCN=C(N)N)C(=O)NCC(=O)N[C@@H](CC(=O)O)C(=O)N[C@H](Cc2ccccc2)C(=O)N1C [cilengitide, Cilengitide]",expression of myofibroblast markers,[1],significantly reduced
same,"post injury cardiac function (EF, FS by echocardiography)","[2]; 20 mg/kg daily for 14 days from day of injury, control littermates (FIG. 8H)",did not affect
same,scar size,"[2]; 20 mg/kg daily for 14 days, control animals, 2 weeks post injury (FIGS. 8J, 8K)",did not affect
same,fraction of animals exhibiting severe fibrosis,"Col5a1CKO animals; 20 mg/kg daily for 14 days, 2 weeks post injury, severe = >50% fibrotic area (FIG. 8L)",22%
same,degree of myocyte hypertrophy in the border zone (heart weight/body weight ratios and histological analysis),"Col5a1CKO animals; 20 mg/kg daily for 14 days, 2 weeks post injury, versus vehicle-injected group, p<0.05 (FIGS. 8N, 8O)",substantially reduced
same,Scar size expressed as a fraction of left ventricular surface area,"Col5a1CKO animals; 20 mg/kg daily for 14 days, Masson trichrome, 2 weeks post injury, mean±S.D., n=9, p<0.05 versus Col5a1CKO+vehicle (FIGS. 8J, 8K)",41.2±16.1%
same,"post injury cardiac function (EF, FS by echocardiography)","Col5a1CKO animals; 20 mg/kg daily intraperitoneal for 14 days from day of injury, 1 and 2 weeks after injury, versus vehicle-injected Col5a1CKO (FIGS. 8H, 8I)",complete rescue of function
same,number of myofibroblasts (αSMA+vimentin+cells/vimentin+cells) in scars,"Col5a1CKO animals; 2 weeks of cilengitide injection, 20 mg/kg daily, versus vehicle-injected group, p<0.05 (FIG. 8M)",significantly reduced
